The values that follow come from EP0307077A1, “Tetrahydrocarbazoles for the improvement of cyclosporin therapy” (MERCK FROSST CANADA INC., priority 1987, dated 1989).

SMILES strings stand for the structures.

Test [1] relates to female spontaneously hypertensive (SHR) rats. The test is described as follows: Cyclosporine A-induced nephrotoxicity, 14 days dosing, serum BUN (Example 63). In kind it is in vivo. The procedure: All experiments were carried out using female spontaneously hypertensive (SHR) rats, weight range 160-200 gm, obtained from Taconic Farms. […] Three thromboxane antagonists have been studied. […] Thromboxane antagonists have been administered as the sodium salt dissolved in saline, the sodium salt dissolved in 0.1% NaHCO3 or the free acid suspended in 1% Methocel.

For test [2] the test system is unchanged. In words: Cyclosporine A-induced nephrotoxicity, pilot study, 2 weeks dosing, serum BUN and creatinine (Example 64). In kind it is in vivo. The settings on record: for Serum BUN / Serum Creatinine: 2 weeks, means ± S.E.M. (n = 8).
The test system is the same in test [3]. In words: Cyclosporine A-induced nephrotoxicity, 5 week study, serum BUN, serum creatinine, creatinine clearance (Example 64). The note with it: for Mean Serum BUN Values: Compound 63 (10 mg/kg/day) and Cyclosporine A; for Mean Serum Creatinine Levels: Compound 63 (10 mg/kg/day) and Cyclosporine. The procedure:
Experiments were carried out using groups of 6 female spontaneously hypertensive (SHR) rats, weight range 166-194 gm, obtained form Taconic Farms. […] At weekly intervals form 2 weeks onwards, animals were placed in individual metabolism cages and 24 hr urin samples collected, the volume measured and the creatinine levels determined (Lakeshore Diagnostic Laboratories). Creatinine clearance per rat was calculated from the formula: [formula] where Ucr = concentration of creatine in urine • Per = concentration of creatinine in plasma • V = volume of urine flow in ml/min
After removal from the metabolism cage, a blood sample was taken from each rat for determination of serum BUN and creatinine (Lakeshore Diagnostic Laboratories). In a preliminary study, groups of 8 rats were dosed as above for 2 weeks only and serum samples removed for determination of BUN and creatinine as above.

In a further test the test system is rats. The settings on record: cyclosporine A nephrotoxicity model, Penico et al. 1986; cited from earlier work.
Where [4] appears, read: Cyclosporine A and Compound 63 3 mg/kg/day.
The mark [5] stands for this setting: Cyclosporine A and Compound 63 10 mg/kg/day.

Turning to `O=C(O)CC1CCCc2c1n(Cc1ccc(Cl)cc1)c1ccc(F)cc21` (racemic) [Compound 1, 9-p-chlorobenzyl-6-fluoro-1,2,3,4-tetrahydracarbazol-1-yl-acetic acid], the “inhibition of the increase in serum BUN” value in test [1] (Table 1 (Experiment 1), 3 mg/kg/day in saline with cyclosporine A) is “significant inhibition”.
Turning to `CS(=O)(=O)c1ccc(Cn2c3c(c4cc(F)cc(F)c42)CCCC3CC(=O)O)cc1` (single isomer, unassigned) [Compound 63], the “reduction of the increase in serum BUN” value in test [2] (3 or 10 mg/kg/day with cyclosporine A, pilot study) was “significantly reduced the increase in serum BUN to control levels”. Also, the “Serum BUN” value in test [2] (setting [4]) was 20.8 ± 1.0 mg/dL; in test [2] (setting [5]), 22.2 ± 0.7 mg/dL. For the same compound, the results for the “Serum Creatinine” value in test [2] (setting [4]) and in test [2] (setting [5]) were 0.64 ± 0.02 mg/dL and 0.65 ± 0.04 mg/dL, respectively. In addition, the “reduction of the increase in serum creatinine” value in test [2] (higher dose (10 mg/kg/day) with cyclosporine A, pilot study, p = 0.07) was “failed to reach statistical significance”; in test [2] (lower dose (3 mg/kg/day) with cyclosporine A, pilot study) it was “significantly reduced the increase in serum creatinine”. Also, the “Mean Serum BUN Values” was found to be 26.4 ± 0.9 mg/dL in test [3] (week 2), 22.3 ± 1.7 mg/dL in test [3] (week 3), 24.0 ± 1.4 mg/dL in test [3] (week 4) and 21.0 ± 1.1 mg/dL in test [3] (week 5). Further, the Mean Serum Creatinine Levels worked out at 0.51 ± 0.03 mg/dL in test [3] (week 2), 0.44 ± 0.01 mg/dL in test [3] (week 3), 0.54 ± 0.02 mg/dL in test [3] (week 4) and 0.42 ± 0.01 mg/dL in test [3] (week 5). In addition, in test [3] (cotreatment with Compound 63 (10 mg/kg/day), 5 week study), the “prevention of cyclosporine A-induced changes (serum BUN, creatinine clearance)” value is recorded as “prevented”. In addition, in test [3] (overall conclusion of Example 64), the “cyclosporine A-induced nephrotoxicity” value is “inhibits”. The “creatinine clearance, Compound 63 and cyclosporine A compared to cyclosporine A alone” value in test [3] (week 3) was “significantly different”; in test [3] (week 5, p = 0.07), “just failed to reach statistical significance”. Moreover, the “serum BUN, Compound 63 and cyclosporine A compared to cyclosporine A alone” value in test [3] (weeks 3 and 5) is “significantly different”.
As for `O=C(O)CC1CCCc2c1n(Cc1ccc(Cl)cc1)c1c(F)cc(F)cc21` (single isomer, unassigned; (-)) [Compound 37, (-)-9 p-Chlorobenzyl-6,8-difluoro-1,2,3,4-tetrahydrocarbazol-1-yl-acetic acid], in test [1] (both doses (3 and 10 mg/kg/day), suspension of the free acid, with cyclosporine A), the “inhibition of the rise in serum BUN” value was “significant inhibition”.
Turning to `CS(=O)(=O)c1ccc(Cn2c3c(c4cc(F)cc(F)c42)CCCC3CC(=O)O)cc1` (single isomer, unassigned; (-)) [Compound 50, (-)9-p-Methylsulfonylbenzyl-6,8-difluoro-1,2,3,4-tetrahydrocarbazol-1-yl acetic acid], the “effects on cyclosporine A-induced rises in serum BUN” value in test [1] (both 3 and 10 mg/kg/day, suspension of the free acid (Table 4)) is listed as “effective”.
For the compound `Cc1c(Cn2ccnc2)c2ccccc2n1CCC(=O)O` [Uk-38,485], in the test with rats, the glomerular filtration rate entry is given as “increased” and the “urinary TxB2” value is given as “reduced”.
